The text below walks through data of patent US8598206B2, “Trypsin-like serine protease inhibitors, and their preparation and use” (The Medicines Company (Leipzig) GmbH, priority 2010, dated 2013).

Like-named read-outs stand apart in the source and are kept apart here.

Data set [1] deals with T1, plasmin (Homo sapiens (Human), UniProt P00747). As to conditions: background literature; read-out: Ki / inhibition constant for plasmin; cited from earlier work.
A further data set has as its target human urinary kallikrein (Homo sapiens (Human), UniProt P06870). Description: Inhibition of human urinary kallikrein. In kind it is biochemical. As to conditions: S-2266 substrate; read-out: h uKK Ki. As for the experimental part: (§1) The inhibitory effect for the individual enzymes was determined in analogy to a previously disclosed method (Stürzebecher et al., J. Med. Chem., 40, 3091-3099 (1997)).
(§2) 200 μl of TBS (0.05 M trishydroxymethylaminomethane; 0.154 M NaCl, 2% ethanol, pH 8.0)
(§3) 2 μL of a test compound solution in 50% v/v DMSO/water
(§4) For zero order kinetics, the reaction was stopped after 20 min by adding 15 μl of acetic acid (80% v/v), and the absorption at 405 nm was determined using a Microplate Reader (Multiscan Ascent™, from Thermo). In the case of pseudo-first order kinetics, the reaction rates in the equilibrium state were determined by continuously recording the change in absorbance at 405 nm. The Ki values were calculated by parameter fitting in accordance with the rate equation for competitive inhibition using the GraFit software, version 4. The Ki values are the average of at least three determinations.

A further data set deals with human Factor Xa (Homo sapiens (Human), UniProt P00742). Description: Inhibition of human Factor Xa. It counts as biochemical. The settings on record: Pefachrome FXa substrate; read-out: h FXa Ki. As for the experimental part:
The inhibitory effect for the individual enzymes was determined in analogy to a previously disclosed method (Stürzebecher et al., J. Med. […] In the case of pseudo-first order kinetics, the reaction rates in the equilibrium state were determined by continuously recording the change in absorbance at 405 nm. […] The Ki values are the average of at least three determinations. Human Factor Xa (h FXa): […]

For data set [2], the target named is T1, plasmin. Briefly: Determination of inhibition constants for human plasmin (chromogenic substrate). In kind it is biochemical. The settings on record: 25° C., Chromozym PL substrate; read-out: h plasmin Ki. As for the experimental part: (§5) Determination of the Inhibition Constants for Human Plasmin (h Plasmin) and Human Plasma Kallikrein (h PK)
as §1, §2
(§6) 25 μl of substrate (4 mM, 2 mM and 1 mM tosyl-Gly-Pro-Lys-pNA=Chromozym PL from LOXO for plasmin and 3 mM, 1.5 mM and 1 mM H-D-Pro-Phe-Arg-pNA=S2302 from Chromogenix for PK, dissolved in H2O)
as §3
(§7) 50 μl of enzyme solution (plasmin from Calbiochem: 1.7 mU/ml in 0.154 M NaCl+0.1% BSA m/v; plasma kallikrein from Enzyme Research Lab.: 62 ng/ml in 0.154 M NaCl+0.1% BSA m/v)
as §4
Target sequence in this assay (P00747 581-810): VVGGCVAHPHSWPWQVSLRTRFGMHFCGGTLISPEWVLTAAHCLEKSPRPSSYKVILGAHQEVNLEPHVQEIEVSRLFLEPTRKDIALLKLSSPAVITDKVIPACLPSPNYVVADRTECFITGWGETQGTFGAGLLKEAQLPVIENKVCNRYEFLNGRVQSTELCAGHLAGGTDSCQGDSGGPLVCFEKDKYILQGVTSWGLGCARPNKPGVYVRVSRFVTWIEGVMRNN
Target sequence in this assay (P00747 97-580 partner): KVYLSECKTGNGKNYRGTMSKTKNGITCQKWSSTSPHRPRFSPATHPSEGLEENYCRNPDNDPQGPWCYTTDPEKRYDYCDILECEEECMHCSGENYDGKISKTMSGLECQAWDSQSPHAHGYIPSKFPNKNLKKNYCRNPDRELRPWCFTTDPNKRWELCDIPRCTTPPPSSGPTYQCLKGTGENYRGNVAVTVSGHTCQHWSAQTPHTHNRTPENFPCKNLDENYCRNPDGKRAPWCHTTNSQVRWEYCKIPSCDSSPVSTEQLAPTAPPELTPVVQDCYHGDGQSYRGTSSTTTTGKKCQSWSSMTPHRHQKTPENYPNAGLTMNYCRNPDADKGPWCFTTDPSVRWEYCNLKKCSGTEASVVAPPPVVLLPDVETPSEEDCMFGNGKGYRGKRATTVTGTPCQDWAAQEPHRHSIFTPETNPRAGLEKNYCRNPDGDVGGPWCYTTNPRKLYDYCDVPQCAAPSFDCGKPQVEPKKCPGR

Data set [3] deals with human activated C1s complement component (Homo sapiens (Human), UniProt P09871). Description: Inhibition of human C1s. In kind it is biochemical. The settings on record: S2314 substrate; read-out: h C1s Ki. As for the experimental part:
as §1, §2, §3, §4
Subcomponent “s” of Human Complement Component 1 (h C1s): Inhibition of human C1s was determined by the method described in [0092]-[0098] using native human activated C1s complement component from Calbiochem at 29 nM and Val-Ser-Arg-pNA (S2314) at 8 mM, 6 mM, and 4 mM as substrate; results are reported as Ki values (nanomolar).

Data set [4] addresses human activated C1r complement component (Homo sapiens (Human), UniProt P00736). Description: Inhibition of human C1r. In kind it is biochemical. As to conditions: S2314 substrate; read-out: h C1r Ki. Here is the method:
as §1, §2, §3, §4

In another data set the target is human t-PA (Homo sapiens (Human), UniProt P00750). Briefly: Inhibition of human tissue-type plasminogen activator. It counts as biochemical. As to conditions: Pefachrome tPA substrate; read-out: h t-PA Ki. As for the experimental part:
as §1, §2, §3, §4

The target in the next data set is plasma kallikrein (Homo sapiens (Human), UniProt P03952). Description: Determination of inhibition constants for human plasma kallikrein (chromogenic substrate). It counts as biochemical. As to conditions: 25° C., S2302 substrate; read-out: h PK Ki. As for the experimental part:
as §5, §1, §2, §6, §3, §7, §4

For data set [5], the target named is human activated protein C (Homo sapiens (Human), UniProt P04070). Briefly: Inhibition of human activated protein C. In kind it is biochemical. As to conditions: Pefachrome PCa substrate; read-out: h aPC Ki. As for the experimental part:
as §1, §2, §3, §4

A further data set has as its target human Factor XIa (Homo sapiens (Human), UniProt P03951). Briefly: Inhibition of human Factor XIa. The settings on record: Pefachrome PCa substrate; read-out: h FXIa Ki. It counts as biochemical. As for the experimental part:
as §1, §2, §3, §4

In another data set the target is human alpha-FXIIa (Homo sapiens (Human), UniProt P00748). Briefly: Inhibition of human alpha-Factor XIIa. In kind it is biochemical. The settings on record: CHA-Gly-Arg-pNA substrate; read-out: h FXIIa Ki. As for the experimental part:
as §1, §2, §3, §4

The target of another data set is human alpha-thrombin (Homo sapiens (Human), UniProt P00734). Briefly: Inhibition of human Factor IIa. It counts as biochemical. The settings on record: Pefachrome tPA substrate; read-out: h FIIa Ki. As for the experimental part: as §1, §2, §3, §4
For data set [6] the following is noted: cited from earlier work.
The target in the next data set is trypsin. The settings on record: background; cited from earlier work.

Chain of human alpha-FXIIa (P00748 373-615): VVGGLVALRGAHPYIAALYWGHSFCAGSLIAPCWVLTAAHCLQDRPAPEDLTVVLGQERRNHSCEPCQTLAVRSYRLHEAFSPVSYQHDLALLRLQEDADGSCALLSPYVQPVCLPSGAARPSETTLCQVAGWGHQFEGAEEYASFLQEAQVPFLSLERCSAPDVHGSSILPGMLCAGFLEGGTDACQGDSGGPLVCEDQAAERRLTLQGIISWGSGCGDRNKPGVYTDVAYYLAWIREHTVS
Chain of human alpha-FXIIa (P00748 20-372 partner): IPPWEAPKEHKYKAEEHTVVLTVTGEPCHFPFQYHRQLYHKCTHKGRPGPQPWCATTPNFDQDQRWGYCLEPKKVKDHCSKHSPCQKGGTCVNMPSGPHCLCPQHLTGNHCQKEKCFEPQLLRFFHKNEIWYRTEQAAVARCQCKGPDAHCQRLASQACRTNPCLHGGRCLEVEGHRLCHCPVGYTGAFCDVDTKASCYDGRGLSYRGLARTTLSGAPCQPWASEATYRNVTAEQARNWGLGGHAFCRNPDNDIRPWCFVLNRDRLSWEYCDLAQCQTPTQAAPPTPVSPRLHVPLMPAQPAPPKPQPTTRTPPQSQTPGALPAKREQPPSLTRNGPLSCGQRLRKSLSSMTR
Chain of human Factor Xa (P00742 235-488): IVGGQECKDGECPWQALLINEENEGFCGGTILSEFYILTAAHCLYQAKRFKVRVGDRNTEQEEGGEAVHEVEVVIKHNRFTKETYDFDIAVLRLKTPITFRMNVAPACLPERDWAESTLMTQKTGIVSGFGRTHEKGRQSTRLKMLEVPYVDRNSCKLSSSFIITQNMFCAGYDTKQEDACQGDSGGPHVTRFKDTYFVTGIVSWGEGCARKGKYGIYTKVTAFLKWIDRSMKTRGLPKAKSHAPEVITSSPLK
Chain of human Factor Xa (P00742 41-179 partner): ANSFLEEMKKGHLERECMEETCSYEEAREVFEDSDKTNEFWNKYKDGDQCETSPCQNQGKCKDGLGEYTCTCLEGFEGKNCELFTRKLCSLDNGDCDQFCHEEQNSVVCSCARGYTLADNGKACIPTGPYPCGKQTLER
Chain of human t-PA (P00750 36-562): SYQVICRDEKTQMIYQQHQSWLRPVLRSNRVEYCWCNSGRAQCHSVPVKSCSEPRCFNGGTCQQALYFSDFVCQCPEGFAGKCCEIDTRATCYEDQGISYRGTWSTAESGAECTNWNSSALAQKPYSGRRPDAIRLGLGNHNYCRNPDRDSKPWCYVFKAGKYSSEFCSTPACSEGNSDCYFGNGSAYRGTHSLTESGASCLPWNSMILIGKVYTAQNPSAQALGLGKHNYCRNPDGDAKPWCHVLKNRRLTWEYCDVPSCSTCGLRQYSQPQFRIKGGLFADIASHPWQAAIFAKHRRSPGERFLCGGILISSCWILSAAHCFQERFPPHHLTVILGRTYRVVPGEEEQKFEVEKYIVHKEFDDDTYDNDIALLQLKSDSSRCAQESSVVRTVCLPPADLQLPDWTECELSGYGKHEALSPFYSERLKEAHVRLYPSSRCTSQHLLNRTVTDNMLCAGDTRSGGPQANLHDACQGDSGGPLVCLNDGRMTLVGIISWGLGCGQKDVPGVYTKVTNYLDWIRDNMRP
Chain of human activated C1r complement component (P00736 464-705): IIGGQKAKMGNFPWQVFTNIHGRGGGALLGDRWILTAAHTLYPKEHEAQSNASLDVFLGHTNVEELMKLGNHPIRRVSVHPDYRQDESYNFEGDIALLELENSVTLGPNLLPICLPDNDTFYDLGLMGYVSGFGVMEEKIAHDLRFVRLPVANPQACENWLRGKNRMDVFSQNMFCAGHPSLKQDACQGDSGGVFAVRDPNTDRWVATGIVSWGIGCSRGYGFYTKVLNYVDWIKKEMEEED
Chain of human activated C1r complement component (P00736 18-463 partner): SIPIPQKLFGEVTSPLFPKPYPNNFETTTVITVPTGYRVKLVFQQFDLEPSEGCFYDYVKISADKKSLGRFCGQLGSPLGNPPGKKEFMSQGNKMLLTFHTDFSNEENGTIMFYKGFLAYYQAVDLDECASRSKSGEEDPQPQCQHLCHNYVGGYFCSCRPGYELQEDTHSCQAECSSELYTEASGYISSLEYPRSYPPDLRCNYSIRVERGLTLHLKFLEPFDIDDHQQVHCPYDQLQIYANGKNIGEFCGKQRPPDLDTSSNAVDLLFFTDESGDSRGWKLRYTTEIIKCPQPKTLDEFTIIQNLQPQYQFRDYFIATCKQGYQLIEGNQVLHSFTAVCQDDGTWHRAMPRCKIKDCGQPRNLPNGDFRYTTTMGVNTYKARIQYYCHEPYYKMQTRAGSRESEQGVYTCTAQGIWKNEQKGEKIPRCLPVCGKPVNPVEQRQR
Chain of human activated C1s complement component (P09871 438-688): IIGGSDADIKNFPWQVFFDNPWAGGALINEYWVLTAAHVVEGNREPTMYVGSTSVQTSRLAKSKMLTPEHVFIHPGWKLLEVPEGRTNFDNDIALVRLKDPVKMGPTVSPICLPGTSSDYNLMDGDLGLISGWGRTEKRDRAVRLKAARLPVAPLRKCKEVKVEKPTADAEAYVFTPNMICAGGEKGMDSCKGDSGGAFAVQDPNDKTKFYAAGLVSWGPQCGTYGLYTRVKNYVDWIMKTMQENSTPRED
Chain of human activated C1s complement component (P09871 16-437 partner): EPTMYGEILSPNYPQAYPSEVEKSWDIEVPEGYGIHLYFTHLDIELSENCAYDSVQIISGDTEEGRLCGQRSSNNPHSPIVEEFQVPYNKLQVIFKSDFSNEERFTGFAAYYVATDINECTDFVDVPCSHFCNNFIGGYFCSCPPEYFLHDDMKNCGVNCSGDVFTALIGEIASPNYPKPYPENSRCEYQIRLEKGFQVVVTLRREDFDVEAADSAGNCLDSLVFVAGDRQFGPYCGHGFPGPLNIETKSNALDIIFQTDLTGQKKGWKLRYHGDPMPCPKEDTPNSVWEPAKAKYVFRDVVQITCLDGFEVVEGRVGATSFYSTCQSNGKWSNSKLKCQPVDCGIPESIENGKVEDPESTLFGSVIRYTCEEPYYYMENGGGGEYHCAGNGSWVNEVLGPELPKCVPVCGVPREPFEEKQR
Chain of human activated protein C (P04070 212-450): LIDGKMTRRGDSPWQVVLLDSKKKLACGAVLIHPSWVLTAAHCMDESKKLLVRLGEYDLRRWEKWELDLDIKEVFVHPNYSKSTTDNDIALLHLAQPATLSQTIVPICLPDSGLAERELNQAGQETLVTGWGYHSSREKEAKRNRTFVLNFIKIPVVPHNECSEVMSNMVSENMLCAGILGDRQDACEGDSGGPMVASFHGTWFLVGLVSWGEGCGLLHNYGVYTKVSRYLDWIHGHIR
Chain of human activated protein C (P04070 43-197 partner): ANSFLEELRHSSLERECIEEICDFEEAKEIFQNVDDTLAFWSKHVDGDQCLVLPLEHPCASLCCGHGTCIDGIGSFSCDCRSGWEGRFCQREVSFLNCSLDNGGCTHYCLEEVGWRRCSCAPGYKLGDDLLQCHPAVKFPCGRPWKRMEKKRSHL
Chain of human urinary kallikrein (P06870 25-262): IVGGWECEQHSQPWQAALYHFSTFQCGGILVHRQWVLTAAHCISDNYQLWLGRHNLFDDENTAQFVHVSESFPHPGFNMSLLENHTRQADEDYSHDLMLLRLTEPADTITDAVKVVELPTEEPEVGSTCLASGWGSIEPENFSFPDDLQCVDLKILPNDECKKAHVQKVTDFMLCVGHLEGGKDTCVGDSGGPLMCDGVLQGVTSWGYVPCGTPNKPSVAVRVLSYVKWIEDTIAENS
Chain of human Factor XIa (P03951 388-625): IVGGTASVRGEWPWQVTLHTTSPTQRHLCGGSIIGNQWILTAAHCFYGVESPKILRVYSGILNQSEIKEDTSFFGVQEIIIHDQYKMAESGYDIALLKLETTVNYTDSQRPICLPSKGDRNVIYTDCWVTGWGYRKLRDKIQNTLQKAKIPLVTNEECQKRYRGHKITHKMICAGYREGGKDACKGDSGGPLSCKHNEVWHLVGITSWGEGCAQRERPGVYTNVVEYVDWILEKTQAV
Chain of human Factor XIa (P03951 19-387 partner): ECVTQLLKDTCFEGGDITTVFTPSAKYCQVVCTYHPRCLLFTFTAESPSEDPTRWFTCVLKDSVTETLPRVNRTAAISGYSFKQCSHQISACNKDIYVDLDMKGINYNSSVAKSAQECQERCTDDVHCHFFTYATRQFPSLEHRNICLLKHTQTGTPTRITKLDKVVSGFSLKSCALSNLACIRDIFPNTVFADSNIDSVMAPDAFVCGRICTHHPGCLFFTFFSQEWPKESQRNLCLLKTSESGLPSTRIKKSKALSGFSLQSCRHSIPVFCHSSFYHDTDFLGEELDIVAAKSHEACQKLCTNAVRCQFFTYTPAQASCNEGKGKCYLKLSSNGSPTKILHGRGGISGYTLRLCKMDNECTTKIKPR

For `N=C(N)c1ccc(CNC(=O)[C@@H]2CCN2C(=O)[C@H](NCC(=O)O)C2CCCCC2)cc1` [melagatran], the Ki at plasmin [1] is 700 nM.

In the case of `N=C(N)c1ccc(CNC(=O)[C@H](CCC2CCNCC2)NC(=O)[C@@H](CCCc2ccncc2)NS(=O)(=O)Cc2ccccc2)cc1`, the Ki at human urinary kallikrein was greater than 80000 nM; on human Factor Xa, 850 nM; on plasmin [2], 0.4 nM; in data set [3] it was 4950 nM; in data set [4], greater than 50000 nM; on human t-PA, 2300 nM. In addition, the Ki at plasma kallikrein was 2.7 nM; in data set [5] it was 600 nM; at human Factor XIa, 500 nM; on human alpha-FXIIa, 1500 nM; at human alpha-thrombin, 1200 nM.

Regarding `CC(=O)N1CCC(CCC[C@@H](NS(=O)(=O)Cc2ccccc2)C(=O)N[C@@H](CCC2CCNCC2)C(=O)NCc2ccc(C(=N)N)cc2)CC1`, the Ki is greater than 500000 nM on human urinary kallikrein; 750 nM on human Factor Xa; 1.5 nM on plasmin [2]; 9000 nM in data set [3]; greater than 100000 nM in data set [4]; 3000 nM at human t-PA. Besides, the Ki was 2 nM on plasma kallikrein; 1100 nM in data set [5]; 870 nM at human Factor XIa; 630 nM at human alpha-FXIIa; 3800 nM at human alpha-thrombin.

Take `COCC(=O)N1CCC(CC[C@@H](NS(=O)(=O)Cc2ccccc2)C(=O)N[C@@H](CCC2CCNCC2)C(=O)NCc2ccc(C(=N)N)cc2)CC1`: the Ki on human urinary kallikrein is greater than 100000 nM; at human Factor Xa, 1600 nM; on plasmin [2], 1.2 nM; in data set [3], 20000 nM; in data set [4] it was greater than 50000 nM; at human t-PA it was 4700 nM. The Ki on plasma kallikrein amounted to 1.3 nM; in [5], 1200 nM; on human Factor XIa, 1400 nM; at human alpha-FXIIa, 680 nM; at human alpha-thrombin, 4500 nM.

On to `CCCC(=O)N1CCC(CC[C@@H](NS(=O)(=O)Cc2ccccc2)C(=O)N[C@@H](CCC2CCNCC2)C(=O)NCc2ccc(C(=N)N)cc2)CC1`, for which the Ki was greater than 200000 nM on human urinary kallikrein; 2200 nM on human Factor Xa; 0.6 nM on plasmin [2]; greater than 10000 nM in [3]; greater than 15000 nM in [4]; 6100 nM on human t-PA. Besides, the Ki was found to be 2 nM at plasma kallikrein; 1100 nM in data set [5]; 870 nM at human Factor XIa; 800 nM at human alpha-FXIIa; 5500 nM at human alpha-thrombin.

For the molecule `CN(C)C(=O)N1CCC(CC[C@@H](NS(=O)(=O)Cc2ccccc2)C(=O)N[C@@H](CCC2CCNCC2)C(=O)NCc2ccc(C(=N)N)cc2)CC1`, the Ki was greater than 200000 nM on human urinary kallikrein; 2500 nM at human Factor Xa; 0.8 nM on plasmin [2]; 13000 nM in data set [3]; greater than 50000 nM in [4]; 8300 nM on human t-PA. In addition, the Ki at plasma kallikrein stood at 4 nM; in data set [5] it was 1600 nM; at human Factor XIa it was 1500 nM; at human alpha-FXIIa, 2000 nM; at human alpha-thrombin, 13000 nM.

For the molecule `CNC(=O)N1CCC(CC[C@@H](NS(=O)(=O)Cc2ccccc2)C(=O)N[C@@H](CCC2CCNCC2)C(=O)NCc2ccc(C(=N)N)cc2)CC1`, the Ki on human urinary kallikrein is greater than 200000 nM; at human Factor Xa it was 1700 nM; on plasmin [2], 1 nM; in data set [3] it was greater than 20000 nM; in data set [4], greater than 20000 nM; at human t-PA it was 5300 nM. For the same molecule, the Ki at plasma kallikrein was 2 nM; in data set [5], 1100 nM; on human Factor XIa it was 1300 nM; at human alpha-FXIIa, 550 nM; at human alpha-thrombin, 4800 nM.

In the case of aprotinin, the “risk of anaphylactic shock” value in data set [6] (first administration) is less than 0.1%; in data set [6] (repeated administration within 200 days) it was 4-5%. On trypsin, the Ki was 0.1 nM.

For the molecule `N=C(N)c1ccc(CNC(=O)[C@H](CCC2CCNCC2)NC(=O)[C@@H](CCC2CCN(C(=O)C3CC3)CC2)NS(=O)(=O)Cc2ccccc2)cc1`, the Ki at human urinary kallikrein is greater than 50000 nM; at human Factor Xa, 2300 nM; at plasmin [2] it was 0.6 nM; in data set [3], 19000 nM; in data set [4], greater than 50000 nM; on human t-PA, 6100 nM. Moreover, the Ki on plasma kallikrein is 0.3 nM; in [5], 1500 nM; on human Factor XIa, 650 nM; at human alpha-FXIIa, 1100 nM; on human alpha-thrombin, 8500 nM.

Consider `COC(=O)c1cccc(CS(=O)(=O)N[C@H](CCCc2ccccc2)C(=O)N[C@@H](CCC2CCNCC2)C(=O)NCc2ccc(C(=N)N)cc2)c1`, for which the Ki at human urinary kallikrein is greater than 20000 nM; at human Factor Xa it was 5900 nM; at plasmin [2], 2.7 nM; in data set [3] it was 4800 nM; in [4], greater than 30000 nM; at human t-PA it was 3900 nM. Moreover, the Ki was 9.4 nM on plasma kallikrein; 570 nM in data set [5]; 500 nM at human Factor XIa; greater than 10000 nM at human alpha-FXIIa; 920 nM on human alpha-thrombin.

`COC(=O)N1CCC(CC[C@@H](NS(=O)(=O)Cc2ccccc2)C(=O)N[C@@H](CCC2CCNCC2)C(=O)NCc2ccc(C(=N)N)cc2)CC1`: the Ki at human urinary kallikrein is greater than 200000 nM; at human Factor Xa, 2000 nM; at plasmin [2], 0.7 nM; in data set [3] it was greater than 10000 nM; in [4], greater than 20000 nM; on human t-PA, 6600 nM. Also, the Ki on plasma kallikrein is 2 nM; in data set [5] it was 1350 nM; on human Factor XIa, 720 nM; at human alpha-FXIIa, 1600 nM; on human alpha-thrombin, 13000 nM.
